How the values were obtained:
[1] = test system: FAM86A (NM_201400.4); assay: shRNA mean knockdown level of FAM86A (Table 1); format: cell-based; settings: Homo sapiens FAM86A, pLKO.1 vector
[2] = test system: B16F10 cells; assay: Melanogenesis induced by α-MSH (melanin content assay); format: cell-based, mouse; settings: α-MSH 100 nM, 48 hours
[3] = test system: protein FAM86A; assay: Western blotting of protein FAM86A after α-MSH treatment; format: cell-based, mouse; settings: B16F10 cells, α-MSH 100 nM, 48 hours
Description: The B16F10 cells cultured in Example 1 were seeded in 6-well plates at a density of 5×10^4 cells per well, grown for 24 hours, and then treated with α-MSH at 100 nM. The cells were incubated in an incubator under conditions of 37° C. and 5% CO2 for 48 hours, and washed with PBS twice. Subsequently, PBS was completely removed, and then 200 μL of RIPA buffer, which is a tissue lysis and staining reagent, was added to each plate, followed by harvesting cells with a scraper. Afterward, a BCA assay was conducted to quantify proteins, and electrophoresis was performed using 10% SDS-PAGE. The protein in the resulting SDS-PAGE gel was transferred onto a PVDF membrane, and the resulting PVDF membrane onto which the protein transfer had been completed was blocked in TBS-T (in 100 mM NaCl, 10 mM Tris, 0.1% (v/v) Tween-20, pH 7.4 (PBST) containing 3% BSA) at room temperature. After washing three times with TBS-T for 10 minutes, a primary antibody in 3% BSA dissolved in TBS-T was treated for 1 hour, and then sufficiently washed with TBS-T. In addition, a secondary antibody for 1 hour, and washed three times with PBS-T for 10 minutes each. Subsequently, the amount and location of a specific protein were confirmed using an ECL detection system. […]

[4] = test system: tyrosinase, TYRP-1, TYRP-2, MITF and FAM86A genes; assay: Real-time PCR of melanogenesis-associated genes and FAM86A after α-MSH treatment; format: cell-based, mouse; settings: B16F10 cells, α-MSH 100 nM, 48 hours
Description: The B16F10 cells cultured in Example 1 were seeded in 6-well plates at a density of 5×10^4 cells per well, grown for 24 hours, and then treated with α-MSH at 100 nM. The cells were incubated in an incubator under conditions of 37° C. and 5% CO2 for 48 hours. After 48 hours of incubation, the medium was completely removed, the cells were decomposed with TRIzol and neutralized using BCP. The neutralized liquid was treated with isopropanol to precipitate mRNA. Subsequently, only the precipitated mRNA was collected using a centrifuge, and used for the experiment. Intracellular mRNA was synthesized into cDNA using a cDNA kit, and the expression levels of tyrosinase, TYRP-1, TYRP-2, MITF and FAM86A genes, which are important for melanogenesis, were determined by PCR.

[5] = test system: FAM86 (NM_027446.2); assay: shRNA mean knockdown level of FAM86 (Table 1); format: cell-based; settings: Mus musculus FAM86, pLKO.1 vector

## SEQ ID NO: 13: FAM86A shRNA (Homo sapiens, NM_201400.4), pLKO.1 vector, target sequence SEQ ID NO: 23 (DNA CCGGGATGTTGTCATTGCAGCAGATCTCGAGATCTGCTGCAATGACAACATCTTTTTG)
[1]
  Mean Knock down level: 0.79

## Ac-Ser-Tyr-Ser-Met-Glu-His-Phe-Arg-Trp-Gly-Lys-Pro-Val-NH2 [α-MSH]
[2]
  melanogenesis: increased
[3]
  expression level of the protein FAM86A: decreases
[4]
  expression level of FAM86A gene: decreased
  expression level of MITF gene: significantly increased
  expression level of TYRP-1 gene: significantly increased
  expression level of TYRP-2 gene: significantly increased
  expression level of tyrosinase gene: significantly increased

## SEQ ID NO: 16: FAM86 shRNA (Mus musculus, NM_027446.2), pLKO.1 vector, target sequence SEQ ID NO: 26 (DNA CCGGGAGCATTCAGCCATCGTAATCCTCGAGGATTACGATGGCTGAATGCTCTTTTTG)
[5]
  Mean Knock down level: 0.56

## SEQ ID NO: 11: FAM86A shRNA (Homo sapiens, NM_201400.4), pLKO.1 vector, target sequence SEQ ID NO: 21 (DNA CCGGGCAGAAACTGTTTCCCTACGACTCGAGTCGTAGGGAAACAGTTTCTGCTTTTTG)
[1]
  Mean Knock down level: 0.93

## SEQ ID NO: 15: FAM86A shRNA (Homo sapiens, NM_201400.4), pLKO.1 vector, target sequence SEQ ID NO: 25 (DNA CCGGGCAGACATCACTGCCAAGTTACTCGAGTAACTTGGCAGTGATGTCTGCTTTTTG)
[1]
  Mean Knock down level: 0.6

## SEQ ID NO: 14: FAM86A shRNA (Homo sapiens, NM_201400.4), pLKO.1 vector, target sequence SEQ ID NO: 24 (DNA CCGGGCCAGCAGTTCTGGTTCTTAACTCGAGTTAAGAACCAGAACTGCTGGCTTTTTG)
[1]
  Mean Knock down level: 0.77

## SEQ ID NO: 12: FAM86A shRNA (Homo sapiens, NM_201400.4), pLKO.1 vector, target sequence SEQ ID NO: 22 (DNA CCGGCGAGGGAATGTCCTTCTCAATCTCGAGATTGAGAAGGACATTCCCTCGTTTTTG)
[1]
  Mean Knock down level: 0.84

Source: patent publication US12704520B2, “Melanogenesis detection method using FAM86A” (Research & Business Foundation Sungkyunkwan University, priority 2019, dated 2026)
